Test results taken from US8940771B2, “Organic compounds” (Novartis AG, priority 2007, dated 2015).
pIC50: −log10 of the molar value.

Key:
[1] = target: PI3Kα (p85iSH2(461-568)-p110α(21-1068)-His, BV1075) (Homo sapiens (Human), UniProt P42336); experiment: PI3K KinaseGlo assay, PI3Kalpha; format: biochemical; settings: for pIC50: KinaseGlo, 1 μM ATP; for Selectivity PI3Kalpha vs. PI3Kdelta: ratio of PI3Kdelta IC50 to PI3Kalpha IC50
[2] = target: PI3Kδ (p85iSH2(461-568)-p110δ(2-1044)-His, BV1060) (Homo sapiens (Human), UniProt O00329); experiment: PI3K KinaseGlo assay, PI3Kdelta; format: biochemical; settings: 1 μM ATP, alpha vs. delta selectivity table
[3] = alpha vs. delta selectivity table

PI3Kα (p85iSH2(461-568)-p110α(21-1068)-His, BV1075), sequence (P42336 other isoform, or with tags, fused parts or gaps): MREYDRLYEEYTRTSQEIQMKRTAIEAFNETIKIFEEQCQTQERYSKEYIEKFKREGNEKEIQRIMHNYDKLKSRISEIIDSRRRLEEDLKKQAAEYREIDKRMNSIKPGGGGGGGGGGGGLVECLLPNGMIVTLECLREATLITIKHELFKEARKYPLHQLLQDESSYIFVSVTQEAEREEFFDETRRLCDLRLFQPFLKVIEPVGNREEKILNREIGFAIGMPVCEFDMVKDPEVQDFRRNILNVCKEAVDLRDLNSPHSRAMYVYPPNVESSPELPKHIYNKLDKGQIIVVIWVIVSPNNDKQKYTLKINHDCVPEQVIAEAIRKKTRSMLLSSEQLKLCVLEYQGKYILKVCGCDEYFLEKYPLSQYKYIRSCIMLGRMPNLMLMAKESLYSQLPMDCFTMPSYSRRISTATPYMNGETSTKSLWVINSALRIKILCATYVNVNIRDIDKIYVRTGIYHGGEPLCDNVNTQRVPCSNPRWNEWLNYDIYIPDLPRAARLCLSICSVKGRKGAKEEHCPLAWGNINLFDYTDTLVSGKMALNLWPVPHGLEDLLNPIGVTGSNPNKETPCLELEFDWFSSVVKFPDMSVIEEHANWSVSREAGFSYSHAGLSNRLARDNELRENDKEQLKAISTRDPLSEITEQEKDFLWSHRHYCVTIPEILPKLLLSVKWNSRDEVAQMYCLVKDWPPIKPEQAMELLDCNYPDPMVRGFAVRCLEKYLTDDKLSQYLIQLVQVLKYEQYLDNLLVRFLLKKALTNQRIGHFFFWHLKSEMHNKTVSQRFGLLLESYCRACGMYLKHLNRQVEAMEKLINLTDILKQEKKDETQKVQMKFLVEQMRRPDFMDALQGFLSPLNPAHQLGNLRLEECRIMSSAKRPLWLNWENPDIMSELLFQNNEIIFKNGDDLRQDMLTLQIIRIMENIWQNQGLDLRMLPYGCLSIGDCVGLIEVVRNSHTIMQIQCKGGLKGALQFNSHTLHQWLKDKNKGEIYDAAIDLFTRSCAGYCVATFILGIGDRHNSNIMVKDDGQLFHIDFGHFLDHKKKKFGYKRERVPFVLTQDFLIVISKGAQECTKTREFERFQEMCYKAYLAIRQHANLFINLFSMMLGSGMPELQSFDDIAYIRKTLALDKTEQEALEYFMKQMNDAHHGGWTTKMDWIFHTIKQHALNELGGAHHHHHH
PI3Kδ (p85iSH2(461-568)-p110δ(2-1044)-His, BV1060), sequence (O00329 other isoform, or with tags, fused parts or gaps): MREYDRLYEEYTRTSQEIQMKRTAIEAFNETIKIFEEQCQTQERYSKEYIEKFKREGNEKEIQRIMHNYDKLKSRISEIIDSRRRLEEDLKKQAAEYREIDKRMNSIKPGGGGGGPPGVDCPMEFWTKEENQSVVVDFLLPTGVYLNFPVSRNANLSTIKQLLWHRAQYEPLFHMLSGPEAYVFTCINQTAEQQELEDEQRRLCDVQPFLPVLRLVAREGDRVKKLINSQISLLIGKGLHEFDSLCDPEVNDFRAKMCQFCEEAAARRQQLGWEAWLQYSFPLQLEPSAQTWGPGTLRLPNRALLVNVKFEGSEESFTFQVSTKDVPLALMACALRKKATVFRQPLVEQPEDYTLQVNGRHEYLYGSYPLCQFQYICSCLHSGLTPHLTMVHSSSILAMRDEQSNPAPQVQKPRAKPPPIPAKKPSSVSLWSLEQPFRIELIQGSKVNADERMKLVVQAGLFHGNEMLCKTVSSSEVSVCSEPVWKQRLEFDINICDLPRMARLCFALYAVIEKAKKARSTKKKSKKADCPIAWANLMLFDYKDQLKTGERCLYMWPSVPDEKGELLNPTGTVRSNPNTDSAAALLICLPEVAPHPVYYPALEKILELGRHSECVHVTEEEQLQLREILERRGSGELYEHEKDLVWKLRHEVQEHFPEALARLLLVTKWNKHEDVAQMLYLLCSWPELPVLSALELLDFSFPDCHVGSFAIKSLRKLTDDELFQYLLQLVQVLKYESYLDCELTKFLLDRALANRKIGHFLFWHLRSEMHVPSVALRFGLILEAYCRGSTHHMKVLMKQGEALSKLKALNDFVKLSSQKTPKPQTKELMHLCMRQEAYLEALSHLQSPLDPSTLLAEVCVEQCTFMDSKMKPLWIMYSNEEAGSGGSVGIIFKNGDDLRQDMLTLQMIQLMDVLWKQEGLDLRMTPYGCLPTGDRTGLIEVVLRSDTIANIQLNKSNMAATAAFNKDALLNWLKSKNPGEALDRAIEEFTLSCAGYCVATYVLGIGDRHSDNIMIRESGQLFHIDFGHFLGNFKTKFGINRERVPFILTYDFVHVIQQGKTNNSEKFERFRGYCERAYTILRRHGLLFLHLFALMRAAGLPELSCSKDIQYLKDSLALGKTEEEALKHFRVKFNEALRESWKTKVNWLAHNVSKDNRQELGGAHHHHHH

Row | Compound | pIC50 ([1]; 10 nM enzyme, 30 mins) | other results
1 | Cc1nc(NC(=O)N2CCC[C@@]2(C)C(N)=O)sc1-c1ccnc(-n2ccnc2C)n1 [Example 102, S)-2-Methyl-pyrrolidine-1,2-dicarboxylic acid 2-amide 1-({4-methyl-5-[2-(2-methyl-imidazol-1-yl)-pyrimidin-4-yl]-thiazol-2-yl}-amide] | 6.68 | 
2 | Cc1nc(NC(=O)N2CCC[C@]2(C(N)=O)C(F)F)sc1-c1ccnc(C(C)(C)C)n1 [Example 114, (S)-2-Difluoromethyl-pyrrolidine-1,2-dicarboxylic acid 2-amide 1-{[5-(2-tert-butyl-pyrimidin-4-yl)-4-methyl-thiazol-2-yl]-amide}] | 6.89 | 
3 | Cc1nc(NC(=O)N2CC[C@H](O)[C@H]2C(N)=O)sc1-c1ccnc(C(C)(C)C)n1.O=C(O)C(F)(F)F [Example 9, (2S,3S)-3-hydroxy-pyrrolidine-1,2-dicarboxylic acid 2-amide 1-{[5-(2-tert-butyl-pyrimidin-4-yl)-4-methyl-thiazol-2-yl]-amide}triflouroacetate] |  | pIC50 [1, 3]: 7.92; Selectivity PI3Kalpha vs. PI3Kdelta [1]: 38-fold
4 | Cc1nc(NC(=O)N2CCC[C@@]2(C)C(N)=O)sc1-c1ccnc(C(C)(C)C)n1 [Example 12, (S)-2-methyl-pyrrolidine-1,2-dicarboxylic acid 2-amide 1-{[5-(2-tert-butyl-pyrimidin-4-yl)-4-methyl-thiazol-2-yl]-amide}] |  | pIC50 [1, 3]: 7.82; Selectivity PI3Kalpha vs. PI3Kdelta [1]: 65-fold; pIC50 [2]: 6.01
5 | CCN(CC)c1nccc(-c2sc(NC(=O)N3CC[C@@H]4C[C@@]43C(N)=O)nc2C)n1 [Example 88, (1S,5R)-2-Aza-bicyclo[3.1.0]hexane-1,2-dicarboxylic acid 1-amide 2-{[5-(2-diethylamino-pyrimidin-4-yl)-4-methyl-thiazol-2-yl]-amide}] | 7.12 | 
6 | Cc1nc(NC(=O)N2CCC[C@@]2(C)C(N)=O)sc1-c1ccnc(CC2CC2)n1 [Example 110, (S)-2-Methyl-pyrrolidine-1,2-dicarboxylic acid 2-amide 1-{[5-(2-cyclopropylmethyl-pyrimidin-4-yl)-4-methyl-thiazol-2-yl]-amide}] | 7.15 | 
7 | CSc1nccc(-c2sc(NC(=O)N3CCC[C@@]3(C)C(N)=O)nc2C)n1 [Example 74, (S)-2-Methyl-pyrrolidine-1,2-dicarboxylic acid 2-amide 1-{[4-methyl-5-(2-methylsulphanyl-pyrimidin-4-yl)-thiazol-2-yl]-amide}] | 6.89 | 
8 | CC1(c2cc(-c3cnc(NC(=O)N4CCC[C@@]4(C)C(N)=O)s3)ccn2)CC1 [Example 117, S)-2-Methyl-pyrrolidine-1,2-dicarboxylic acid 2-amide 1-({5-[2-(1-methyl-cyclopropyl)-pyridin-4-yl]-thiazol-2-yl}amide] | 7.59 | 
9 | COc1ccc(C2(c3cc(-c4sc(NC(=O)N5CCC[C@@]5(C)C(N)=O)nc4C)ccn3)CC2)cc1 [Example 54, (S)-2-Methyl-pyrrolidine-1,2-dicarboxylic acid 2-amide 1-[(5-{2-[1-(4-methoxy-phenyl)-cyclopropyl]-pyridin-4-yl}-4-methyl-thiazol-2-yl)-amide]] | 6.72 | 
10 | [2H]C([2H])([2H])C(c1nccc(-c2sc(NC(=O)N3CCC[C@@]3(C)C(N)=O)nc2C)n1)(C([2H])([2H])[2H])C([2H])([2H])[2H] [Example 111] | 7.28 | 
11 | CCN(CC)c1cc(-c2cnc(NC(=O)N3CCC[C@@]3(C)C(N)=O)s2)ccn1 [Example 122, (S)-2-Methyl-pyrrolidine-1,2-dicarboxylic acid 2-amide 1-{[5-(2-diethylamino-pyridin-4-yl)-thiazol-2-yl]-amide}] | 7.30 | 
12 | Cc1nc(NC(=O)N2CCC[C@@]2(C)C(N)=O)sc1-c1ccnc(N(C)CCN(C)C)n1 [Example 80, (S)-2-Methyl-pyrrolidine-1,2-dicarboxylic acid 2-amide 1-[(5-{2-[(2-dimethylamino-ethyl)-methyl-amino]-pyrimidin-4-yl}-4-methyl-thiazol-2-yl)-amide]] | 6.60 | 
13 | Cc1nc(NC(=O)N2CC(F)(F)C[C@H]2C(N)=O)sc1-c1ccnc(C2(C)CC2)c1 [Example 59, S)-4,4-Difluoro-pyrrolidine-1,2-dicarboxylic acid 2-amide 1-({4-methyl-5-[2-(1-methyl-cyclopropyl)-pyridin-4-yl]-thiazol-2-yl}-amide] | 7.15 | 
14 | CCN(CCOC)c1nccc(-c2sc(NC(=O)N3CCC[C@@]3(C)C(N)=O)nc2C)n1 [Example 101, (S)-2-Methyl-pyrrolidine-1,2-dicarboxylic acid 2-amide 1-[(5-{2-[ethyl-(2-methoxy-ethyl)-amino]-pyrimidin-4-yl}-4-methyl-thiazol-2-yl)-amide]] | 7.00 | 
15 | CCCc1nccn1-c1cc(-c2sc(NC(=O)N3CC(O)CC3C(N)=O)nc2C)ccc1S(C)(=O)=O [Example 1, (2S,4R)-4-hydroxy-pyrrolidine-1,2-dicarboxylic acid 2-amide 1-({5-[4-methanesulfonyl-3-(2-propyl-imidazol-1-yl)-phenyl]-4-methyl-thiazol-2-yl}-amide)triflouroacetate] | 6.77 | 
16 | CCN(Cc1ccccc1)c1nccc(-c2sc(NC(=O)N3CCC[C@@]3(C)C(N)=O)nc2C)n1 [Example 98] | 6.85 | 

More lines, main results first:

Row | pIC50 ([1]; 10 nM enzyme, 30 mins) | Compound | other results
17 | 7.32 | Cc1nc(NC(=O)N2C[C@H]3C[C@H]3[C@H]2C(N)=O)sc1-c1ccnc(C(C)(C)C)n1 [Example 11, (1R,2S,5S)-3-aza-bicyclo[3.1.0]hexane-2,3-dicarboxylic acid 2-amide 3-{[5-(2-tert-butyl-pyrimidin-4-yl)-4-methyl-thiazol-2-yl]-amide}] | 
18 | 8.10 | CC(C)(c1cc(-c2cnc(NC(=O)N3CCC[C@@]3(C)C(N)=O)s2)ccn1)C(F)(F)F [Example 119, S)-2-Methyl-pyrrolidine-1,2-dicarboxylic acid 2-amide 1-({5-[2-(2,2,2-trifluoro-1,1-dimethyl-ethyl)-pyridin-4-yl}-thiazol-2-yl]-amide] | 
19 | 7.36 | Cc1nc(NC(=O)N2CCC[C@@]2(CN(C)C)C(N)=O)sc1-c1ccnc(C(C)(C)C)n1 [Example 107, (R)-2-Dimethylaminomethyl-pyrrolidine-1,2-dicarboxylic acid 2-amide 1-{[5-(2-tert-butyl-pyrimidin-4-yl)-4-methyl-thiazol-2-yl]-amide}] | 
20 | 7.31 | COC[C@@]1(C(N)=O)CCCN1C(=O)Nc1nc(C)c(-c2ccnc(C(C)(C)C)n2)s1 [Example 112, (R)-2-Methoxymethyl-pyrrolidine-1,2-dicarboxylic acid 2-amide 1-{[5-(2-tert-butyl-pyrimidin-4-yl)-4-methyl-thiazol-2-yl]-amide}] | 
21 | 7.40 | Cc1nc(NC(=O)N2CCC[C@@]2(C)C(N)=O)sc1-c1ccnc(C(C)(C)C(F)(F)F)c1 [Example 47, S)-2-Methyl-pyrrolidine-1,2-dicarboxylic acid 2-amide 1-({4-methyl-5-[2-(2,2,2-trifluoro-1,1-dimethyl-ethyl)-pyridin-4-yl]-thiazol-2-yl}-amide] | 
22 | 8.05 | Cc1nc(NC(=O)N2CCC[C@@]2(C)C(N)=O)sc1-c1ccnc(C2(C(F)(F)F)CC2)c1 [Example 46, S)-2-Methyl-pyrrolidine-1,2-dicarboxylic acid 2-amide 1-({4-methyl-5-[2-(1-trifluoromethyl-cyclopropyl)-pyridin-4-yl]-thiazol-2-yl}-amide] | 
23 | 7.43 | Cc1nc(NC(=O)N2CCC[C@@]2(C)C(N)=O)sc1-c1ccnc(C2(C)CC2)c1 [Example 40, S)-2-Methyl-pyrrolidine-1,2-dicarboxylic acid 2-amide 1-({4-methyl-5-[2-(1-methyl-cyclopropyl)-pyridin-4-yl]-thiazol-2-yl}-amide] | 
24 | 7.55 | COc1ccc(C(C)(C)c2cc(-c3cnc(NC(=O)N4CCC[C@@]4(C)C(N)=O)s3)ccn2)cc1 [Example 124, (S)-2-Methyl-pyrrolidine-1,2-dicarboxylic acid 2-amide 1-[(5-{2-[1-(4-methoxy-phenyl)-1-methyl-ethyl]-pyridin-4-yl}-thiazol-2-yl)-amide]] | 
25 | 7.77 | Cc1nc(NC(=O)N2CCC[C@@]2(C)C(N)=O)sc1-c1ccnc(C2(C#N)CC2)c1 [Example 49, S)-2-Methyl-pyrrolidine-1,2-dicarboxylic acid 2-amide 1-({5-[2-(1-cyano-cyclopropyl)-pyridin-4-yl]-4-methyl-thiazol-2-yl}-amide] | 
26 | 7.82 | Cc1nc(NC(=O)N2C[C@@H](O)C[C@H]2C(N)=O)sc1-c1ccnc(C(C)(C)C)c1 [Example 7, (2S,4S)-4-hydroxy-pyrrolidine-1,2-dicarboxylic acid 2-amide 1-{[5-(2-tert-butyl-pyridin-4-yl)-4-methyl-thiazol-2-yl]-amide}] | 
27 | 7.62 | CC1(c2cc(-c3sc(NC(=O)N4CCC[C@@]4(C)C(N)=O)nc3Cl)ccn2)CC1 [Example 129, S)-2-Methyl-pyrrolidine-1,2-dicarboxylic acid 2-amide 1-({4-chloro-5-[2-(1-methyl-cyclopropyl)-pyridin-4-yl]-thiazol-2-yl}-amide] | 
28 | 7.51 | Cc1nc(NC(=O)N2C[C@H](O)C[C@@]2(C)C(N)=O)sc1-c1ccnc(C(C)(C)C)n1 [Example 65, (2S,4R)-4-Hydroxy-2-methyl-pyrrolidine-1,2-dicarboxylic acid 2-amide 1-{[5-(2-tert-butyl-pyrimidin-4-yl)-4-methyl-thiazol-2-yl]-amide}] | 
29 | 7.89 | Cc1nc(NC(=O)N2C[C@H](O)C[C@H]2C(N)=O)sc1-c1ccnc(C(C)(C)C)n1 [Example 3, (2S,4R)-4-hydroxy-pyrrolidine-1,2-dicarboxylic acid 2-amide 1-{[5-(2-tert-butyl-pyrimidin-4-yl)-4-methyl-thiazol-2-yl]-amide}triflouroacetate] | 
30 | 8.30 | Cc1nc(NC(=O)N2CCC[C@@]2(C)C(N)=O)sc1-c1ccnc(C2(C(F)(F)F)CCC2)c1 [Example 48, S)-2-Methyl-pyrrolidine-1,2-dicarboxylic acid 2-amide 1-({4-methyl-5-[2-(1-trifluoromethyl-cyclobutyl)-pyridin-4-yl]-thiazol-2-yl}-amide] | 
